Columns and labels:
Parameters in all cases: species or system mice
[1] = In vivo antitumor assay, Mam16C/ADR; conditions: mouse, in vivo, drug iv, qd 1,3,5, exp 1120A, footnote 2: 2 lower doses equally active to modestly more active
Source text: (§1) Mice: Inbred: C3H/He and NCR-nu; and Hybrids: B6D2F1 (C57BL/6 females×DBA/2 males, CD2F1 (Balb/c females×DBS/2 males) and B6C3fl (C57BL/6×C3H) were bred at Wayne State University from strains obtained from the Frederick Cancer Research Facility, Frederick, Maryland or purchased from commercial suppliers.
(§2) Tumors: Murine Tumor: P388 and an adriamycin-resistant (ADR) subline P388/ADR leukemia and the following transplantable solid tumors of mice were used for in vivo testing: B16 melanoma (B16), pancreatic ductal adenocarcinoma No. 03 (Pane 03), colon adenocarcinoma No. 38 (colo 38), lung carcinoma No. 12 (LC 12), mammary ductal adenocarcinoma No. 16/C (Mam16C) and an adriamycin-resistant subline Mam16C/ADR. Human tumor: A single human tumor, mammary carcinoma MX-1 was used for in vivo testing. All tumors are in the Developmental Therapeutics Program frozen tumor respository, maintained by the Biological Testing Branch, Frederick Maryland. Each has a detailed description, code identification number, and list of references at the National Tumor Repository. […]
(§3) Quantitative end points used to assess antitumor activity included % Increased Life Span (% ILS), Tumor Cell Kill (Log10 kill), and Tumor Growth Inhibition (T/C). […]
(§4) The log10 cell kill was calculated from the following formula: [formula] where T-C is the tumor difference in the median day of death between the treated (T) and the control (C) groups and Td is the tumor doubling time (in days), the latter estimated from the best fit straight line from a log-linear growth plot of the control-group tumors in exponential growth. […]
(§5) Tumors were measured with a caliper once or twice weekly (as needed) until either tumors exceeded 1600 mg or cure was assured. […] When the control group tumors reached approximately 750-1500 mg in size (median of group), the median tumor weight of each group was determined (including zeros). […] The % T/C was calculated from the following formula for solid murine tumor models: [formula] where T and C are median tumor weights of the treatment and control groups, respectively. […]

[2] = system: adriamycin-resistant subline Mam16C/ADR; test: In vivo antitumor assay, Mam16C/ADR; conditions: drug iv, qd 1,3,5, exp 1120A
Source text: as §1, §2, §3, §4, §5

[3] = system: pancreatic ductal adenocarcinoma No. 03; test: In vivo antitumor assay, Panc03(sc); conditions: for Log Kill: Panc03(sc), drug iv
Source text: as §1
(§6) Tumors: Murine Tumor: P388 and an adriamycin-resistant (ADR) subline P388/ADR leukemia and the following transplantable solid tumors of mice were used for in vivo testing: B16 melanoma (B16), pancreatic ductal adenocarcinoma No. 03 (Pane 03), colon adenocarcinoma No. 38 (colo 38), lung carcinoma No. 12 (LC 12), mammary ductal adenocarcinoma No. 16/C (Mam16C) and an adriamycin-resistant subline Mam16C/ADR. Human tumor: A single human tumor, mammary carcinoma MX-1 was used for in vivo testing. All tumors are in the Developmental Therapeutics Program frozen tumor respository, maintained by the Biological Testing Branch, Frederick Maryland. Each has a detailed description, code identification number, and list of references at the National Tumor Repository. Murine tumors were maintained in the mouse strain of origin and were transplanted in the appropriate F1 hydrid (or the strain of origin) for therapy trials. Human mammary carcinoma MX-1 (MX1) was maintained as a subcutaneous implant in either athymic Swiss (Cr: NIH(S)-nu) or athymic random bred (NCR-nu) mice and transplanted in NCR-nu for therapy trials.
(§7) Chemotherapy: For pancreatic ductal adenocarcinoma No. 3, colon adenocarcinoma No. 38 (colo 38), lung carcinoma No. 12 LC 12) and both adriamycin-sensitive (RP) and-resistant (ADR) mammary ductal adenocarcinoma No. 16 (Mam16) tumors, bilateral tumor implants were used to help ensure a more uniform tumor burden per mouse (thus reducing the requirement for greater numbers of mice per group). The animals necessary to begin an experiment were pooled, implanted bilaterally s.c. on day zero with 30-60 mg tumor fragments using a 12-gauge trocar, and again pooled before randomization to the various treatment and control groups. Chemotherapy was started within three days after tumor implantation while the number of cells per mouse was relatively small (1×10^7 -1×10^8 cells).
(§8) Quantitative end points used to assess antitumor activity included % Increased Life Span (% ILS), Tumor Cell Kill (Log10 kill), and Tumor Growth Inhibition (T/C). Long Term Survivors (45 or 60 day) were excluded from calculations of %ILS and Tumor Cell Kill.
(§9) The log10 cell kill was calculated from the following formula: [formula] where T-C is the tumor difference in the median day of death between the treated (T) and the control (C) groups and Td is the tumor doubling time (in days), the latter estimated from the best fit straight line from a log-linear growth plot of the control-group tumors in exponential growth. The conversion of the T-C values to log10 cell kill is possible because the Td for tumors regrowing post-treatment approximated the Td values of the tumors in untreated control mice.
Tumors were measured with a caliper once or twice weekly (as needed) until either tumors exceeded 1600 mg or cure was assured. Tumor weights were estimated from two-dimensional measurements: Tumor Weight (mg)=(a×b^2) / 2, where a and b are the tumor length and width (ram) respectively. Measurements were carried out simultaneously in both treatment and control groups. When the control group tumors reached approximately 750-1500 mg in size (median of group), the median tumor weight of each group was determined (including zeros). The T/C value in percent is an indication of antitumor effectiveness. The % T/C was calculated from the following formula for solid murine tumor models: [formula] where T and C are median tumor weights of the treatment and control groups, respectively. A T/C equal to or less than 42% is considered significant antitumor activity. […]

[4] = In vivo antitumor assay, Mam16C(sc); conditions: mouse, in vivo, drug iv, qd 1-4, exp 1132
Source text: as §1, §6, §7, §8, §9, §5

[5] = system: mammary ductal adenocarcinoma No. 16/C (Mam16C); test: In vivo antitumor assay, Mam16C(sc); conditions: drug iv
Source text: as §1, §6, §7, §8, §9, §5

[6] = In vivo antitumor assay, Mam16C/RP (sc); conditions: mouse, in vivo, drug iv
Source text: as §1, §6, §7, §8
(§10) Tumors were measured with a caliper once or twice weekly (as needed) until either tumors exceeded 1600 mg or cure was assured. Tumor weights were estimated from two-dimensional measurements: Tumor Weight (mg)=(a×b^2) / 2, where a and b are the tumor length and width (ram) respectively. Measurements were carried out simultaneously in both treatment and control groups. When the control group tumors reached approximately 750-1500 mg in size (median of group), the median tumor weight of each group was determined (including zeros). The T/C value in percent is an indication of antitumor effectiveness. The % T/C was calculated from the following formula for solid murine tumor models: [formula] where T and C are median tumor weights of the treatment and control groups, respectively. […] A T/C value <10% is indicative of a high degree of antitumor activity and is the level used by National Cancer Institute to justify further development if other requirements are met (termed DN-2 level activity). By convention the T/C value for the mammary carcinoma MX-1 models is calculated by the parameter of change in tumor weight .

[7] = system: adriamycin-sensitive (RP) mammary ductal adenocarcinoma No. 16; test: In vivo antitumor assay, Mam16C/RP (sc); conditions: drug iv
Source text: as §1, §6, §7, §8, §10

[8] = Mam16C/RP (sc), bid 1-5, exp 924

SMILES | MTD [1] [mg/kg] | Log Kill [2] | T/C % [2] [%] | Log Kill ([3]; qd 3,6,9, exp 1146) | Log Kill ([3]; qd 3, exp 895A) | MTD [4] [mg/kg] | Log Kill ([5]; qd 1,3,5, exp 1142A) | T/C % ([5]; qd 1,3,5, exp 1142A) [%] | Log Kill ([5]; qd 1-4, exp 1132) | T/C % ([5]; qd 1-4, exp 1132) [%] | MTD [6, 8] [mg/kg] | Log Kill [7, 8] | T/C % [7, 8] [%] | Log Kill ([3]; qd 3-5, exp 895A) | MTD ([3]; mouse, in vivo, iv) [Mg/Kg] | MTD ([6]; Mam16C/RP, bid 1-8, exp 924) [mg/kg] | Log Kill ([7]; Mam16C/RP, bid 1-8, exp 924) | T/C % ([7]; Mam16C/RP, bid 1-8, exp 924) [%]
Cc1cc(-c2c(F)cc3c4nn(CCN(C)C)c(=O)c-4cn(C4CC4)c3c2F)cc(C)n1.O=C(O)/C=C/C(=O)O [Example 1, 5-Cyclopropyl-6,8-difluoro-2,5-dihydro-2-[2-(dimethylamino)-ethyl]-7-(2,6-dimethyl-4-pyridinyl)-3H-pyrazolo[4,3-c]quinolin-3-one (E)-2-butendioate (1:1)] | 58 | 0.50 | 26 | 0.66 | 0.66 | 43 | 1.9 | 18 | 1.3 | 7 | 20 | 1.2 | 13 | – | – | – | – | –
Cc1cc(-c2c(F)cc3c4nn(CCCN(C)C)c(=O)c-4cn(C4CC4)c3c2F)cc(C)n1 [Example 14] | – | – | – | – | – | – | – | – | – | – | – | – | – | 0.60 | 64 | 101 | 1.5 | 8

Reference: patent US5334595A, “Pyrazoloquinolones as anticancer agents” (priority 1992, dated 1994)
